“And” between values parts separate entries of the source, which are not always exact repeats. Identical values can stand only once.

The record followed here is US11225479B2, “Bicyclic inhibitors of histone deacetylase” (Alkermes, Inc., priority 2017, dated 2022).

Data set [1] relates to human myeloid progenitors (CFU-GM). The data set is described as follows: Myeloid CFU assay. The format is cell-based. As to conditions: 336 h, 14 days culture, human bone marrow cells, read-out: Myeloid % control @ 10 uM dose. Here is the method:
(§1) Compounds were tested to evaluate the potential effects on human erythroid and myeloid progenitors using colony forming cell assays. Clonogenic progenitors of human erythroid (CFU-E, BFU-E), granulocyte-monocyte (CFU-GM) and multipotential (CFU-GEMM) lineages were assessed in a semi-solid methylcellulose-based media formulation containing rhIL-3 (10 ng/mL), rhGM-SCF (10 ng/mL), rhSCF (50 ng/mL) and Epo (3 U/mL).
(§2) Normal human bone marrow light density cells derived from normal bone marrow (NorCal Biologics, California), were stored in the gaseous phase of liquid nitrogen (−152° C.) until required for the assay. On the day of the experiment, the cells were thawed rapidly, the contents of each vial was diluted in 10 mL of Iscove's modified Dulbecco's medium containing 10% fetal bovine serum (IMDM+10% FBS) and washed by centrifugation (approximately 1200 r.p.m. for 10 minutes, room temperature). The supernatant was discarded and the cell pellets resuspended in a known volume of IMDM+10% FBS. A cell count (3% glacial acetic acid) and viability assessment (trypan blue exclusion test) was performed for the bone marrow sample.
(§3) On the day of the experiment, the compounds were dissolved in DMSO to a stock concentration of 10 mM. Serial dilutions were prepared from the stock concentration to achieve concentrations of 2 and 0.4 mM. When added to the methylcellulose-based media at 1:1000 (v/v), the final test concentrations of 10, 2 and 0.4 μM were achieved. Additionally, 5-FU was evaluated at 1.0, 0.1 and 0.01 μg/mL.
(§4) Clonogenic progenitors of the human erythroid (CFU-E and BFU-E) and myeloid (CFU-GM) lineages were set up in the methylcellulose-based media formulations described above. All compounds were added to the medium to give the final desired concentrations (10, 2 and 0.4 μM). 5-Fluorouracil (Sigma Aldrich) was used as a positive control for progenitor proliferation (inhibition of colony growth) and was introduced to the human bone marrow cultures at 1.0, 0.1, and 0.01 μg/mL. Solvent control cultures (containing no compound but 0.1% DMSO) as well as standard controls (containing no compound and no DMSO) were also initiated.
(§5) Human myeloid and erythroid progenitor assays were initiated at 2.0×10^4 cells per culture. Following 14 days in culture, myeloid and erythroid colonies were assessed microscopically and scored by trained personnel. The colonies were divided into the following categories based on size and morphology: CFU-E, BFU-E, CFU-GM and CFU-GEMM.
(§6) The mean±one standard deviation of three replicate cultures was calculated for progenitors of each category (CFU-E, BFU-E, etc.). Two-tailed t-tests were performed to assess if there was a difference in the number of colonies generated between solvent control and treated cultures. Due to the potential subjectivity of colony enumeration, a p value of less than 0.01 is deemed significant. To calculate the concentration of 50% inhibition of colony growth (IC50) for each compound, a dose response curve was generated plotting the log of the compound concentration versus the percentage of control colony growth using XLfit software (IDBS). The concentration of 50% inhibition of colony growth (IC50) was calculated based on the sigmoid curve fit using Dose-Response, One-Site Model formula: y=A+[(B−A)/(1+((C/x)^D))], where A=the initial value (baseline response), B=maximum response, C=center (drug concentration that provokes a response halfway between A and B) and D=slope of the curve at midpoint. Further, plots and additional dose response curves were generated using GraphPad Prism 7.0.
(§7) Erythroid (CFU-E and BFU-E), myeloid (CFU-GM) and multi-potential (CFU-GEMM) colony enumeration was performed by trained personnel. The distribution of colony types as well as general colony and cellular morphology was analyzed. For statistical analysis colony numbers in compound treated cultures were compared to the solvent control cultures. […]

Data set [2] is described as follows: Brain and plasma exposure following IV and PO administration to mice. The format is in vivo. The following applies: for Brain Cmax @ 10 mpk / Projected free brain @ 10 mpk: 10 mg/kg PO; for brain Cmax exposure, fold higher than comparator 1 / projected free brain concentration, fold higher than comparator 1: comparator 1 data scaled for comparison. Here is the method:
Compounds were dosed in mice at either 10 mg/kg or 30 mg/kg PO, and were dosed at 1 mg/kg IV. Three animals for collection at each time point for plasma via bleeding at 0.25, 0.5, 1, 4, 12 and 24 h. Terminal bleeding for plasma and sampling for brain at 0.25, 0.5, 1, 4, 12 and 24 h (also three animals per brain exposure time point group). Total of six time points for plasma and six time points for brain.
Plasma: The animal was restrained manually at the designated time points, approximately 150 μL blood/time point was collected into K2EDTA tube via retro orbital puncture or cardiac puncture under anesthesia with Isoflurane. The blood sample was centrifuged (2000 g, 4° C., 5 min) to generate plasma within 30 min after bleeding.
Brain: At the designated time points, a mid-line incision was made in the animals scalp and the skin was retracted. Using small bone cutters and rongeurs, removed the skull overlying the brain. Removed the brain using a spatula and rinse with cold saline. Placed the brain in screw-top tubes, and then stored the tubes under −70° C. until analysis.

For data set [3], the system named is human erythroid progenitors (CFU-E, BFU-E). The data set is described as follows: Erythroid CFU assay. It counts as cell-based. As to conditions: for activity at 10 µM: Bone marrow cell, 336 h, 14 days culture, human bone marrow cells, read-out: Erythroid % control @ 10 uM dose. The procedure:
as §1, §2, §3, §4, §5, §6, §7

Consider `COCCn1cc2c(n1)CN(C(=O)Nc1nc(-c3ccc(F)cc3F)ccc1N)C2` [Compound 9], for which the figures for the activity at 10 µM in data set [1] and in data set [3] were 62.8% and 40.4%, respectively. The “Brain Cmax @ 10 mpk” value in data set [2] is 1533 ng/g and 1383 ng/g.

In the case of `Cc1ncc(-c2ccc(N)c(NC(=O)N3Cc4cn(CC(F)F)nc4C3)n2)s1` [Compound 5], the “Brain Cmax @ 10 mpk” value in data set [2] was found to be 277 ng/g.

`Cc1ncc(-c2ccc(N)c(NC(=O)N3Cc4cn(C)nc4C3)n2)s1` [Compound 4]: the activity at 10 µM in data set [1] came out at 96%; in data set [3], 53%. Also, the “Brain Cmax @ 10 mpk” value in data set [2] was determined as 324 ng/g.

Regarding `COCc1cc2c(cn1)CN(C(=O)Nc1nc(-c3ccc(F)cc3)ccc1N)C2` [Comparator 5, reference compound], the activity at 10 µM in data set [1] came out at 58.9%; in data set [3], 22.9%.

`CCc1ncc2c(n1)CN(C(=O)Nc1nc(-c3cccs3)ccc1N)C2` [Compound 3]: the activity at 10 µM turned out to be 89.4% in data set [1] and 46.6% in data set [3]. The “Brain Cmax @ 10 mpk” value in data set [2] turned out to be 526 ng/g.

As for `Nc1ccc(-c2ccc(F)cc2)nc1NC(=O)N1Cc2cncnc2C1` [Comparator 1, reference compound], the activity at 10 µM in data set [1] was found to be 83.9%; in data set [3], 47.1%. In addition, in data set [2] (dosed 30 mg/kg PO, scaled to 10 mg/kg PO), the “Brain Cmax @ 10 mpk (*scaled for comparison)” value was 158* ng/g.

As for `Cc1nc2c(n1C)CN(C(=O)Nc1nc(-c3ccc(F)cc3)ccc1N)C2` [Compound 7], the “Brain Cmax @ 10 mpk” value in data set [2] is on record as 102 ng/g.

Take `Cc1ncc2c(n1)CN(C(=O)Nc1nc(-c3ccc(F)s3)ccc1N)C2` [Compound 2]: the activity at 10 µM is 87% in data set [1] and 40% in data set [3]. Moreover, the “Brain Cmax @ 10 mpk” value in data set [2] stood at 760 ng/g.

As for `CCc1ncc2c(n1)CN(C(=O)Nc1nc(-c3ccc(F)cc3)ccc1N)C2` [Compound 17], the activity at 10 µM in data set [1] was determined as 79.1%. For the same compound, in data set [2], the “Brain Cmax @ 10 mpk” value was found to be 1241 ng/g; the “brain Cmax exposure, fold higher than comparator 1” value is around 7 fold; the “projected free brain concentration, fold higher than comparator 1” value amounted to 5 fold. Besides, in data set [3], the activity at 10 µM worked out at 59.6%.

As to `Cc1cc2c(cn1)CN(C(=O)Nc1nc(-c3cccnc3)ccc1N)C2` [Compound 12], the activity at 10 µM was determined as 104% in data set [1] and 93% in data set [3]. Besides, the “Brain Cmax @ 10 mpk” value in data set [2] is given as 237 ng/g.

In the case of `Nc1ccc(-c2ccc(F)cc2)nc1NC(=O)N1Cc2cn(C3COC3)nc2C1` [Compound 1], the activity at 10 µM in data set [1] turned out to be 54%; in data set [3], 37%. For the same compound, the “Brain Cmax @ 10 mpk” value in data set [2] is listed as 636 ng/g.

For `COCCn1cc2c(n1)CN(C(=O)Nc1nc(-c3ccc(F)cc3)ccc1N)C2` [Comparator 6, reference compound], the activity at 10 µM in data set [1] worked out at 39%; in data set [3], 28%.

For the compound `Cn1cc2c(n1)CN(C(=O)Nc1nc(-c3ccc(F)cc3)ccc1N)C2` [Comparator 2, reference compound], the activity at 10 µM in data set [1] stood at 30.4%; in data set [3], 15.7%.

`Nc1ccc(-c2cccs2)nc1NC(=O)N1Cc2cncnc2C1` [Comparator 6, reference compound]: in data set [2], the “Brain Cmax @ 10 mpk” value stood at 100 ng/g and the “Projected free brain @ 10 mpk” value is 0.103 µM.

Regarding `Cn1cc2c(n1)CN(C(=O)Nc1nc(-c3cccnc3)ccc1N)C2` [Compound 11], the activity at 10 µM in data set [1] amounted to 103%. Also, in data set [2], the “Brain Cmax @ 10 mpk” value came out at 369 ng/g and the “Projected free brain @ 10 mpk” value came out at 0.664 µM. In data set [3], the activity at 10 µM stood at 94%.

On to `Cc1ncc2c(n1)CN(C(=O)Nc1nc(-c3ccc(F)cc3)ccc1N)C2` [Compound 14], for which the activity at 10 µM in data set [1] stood at 112%. Also, in data set [2], the “Brain Cmax @ 10 mpk” value is listed as 633 ng/g; the “brain Cmax exposure, fold higher than comparator 1” value was found to be 4 fold; the “projected free brain concentration, fold higher than comparator 1” value is recorded as 4 fold. Further, in data set [3], the activity at 10 µM came to 53%.

On to `CCc1cc2c(cn1)CN(C(=O)Nc1nc(-c3cccnc3)ccc1N)C2` [Compound 8], for which the activity at 10 µM in data set [1] is 102%; in data set [3] it was 98%. Besides, in data set [2], the “Brain Cmax @ 10 mpk” value was 279 ng/g.

Regarding `Cc1cc2c(cn1)CN(C(=O)Nc1nc(-c3ccc(F)cc3)ccc1N)C2` [Comparator 3, reference compound], the activity at 10 µM in data set [1] is 66.1%; in data set [3], 25.7%.

For the compound `O=c1[nH]cc(F)c(=O)[nH]1` [Compound 5-FU, 5-Fluorouracil, reference compound], in data set [3] (1.0, 0.1 and 0.01 μg/mL, erythroid and myeloid assays), the “inhibitory effects on colony growth (positive control for toxicity)” value is given as “exactly as expected”.
